Assay results: paper PMC7046148 (Scientific Reports, 2020)
Entries after “also recorded” stand apart in the source; their conditions may differ.

Assays:
SALL4 = molecular target: T1, SALL4 (Homo sapiens, UniProt Q96SW2+Q9UJQ4); test: SALL4 MFI by high content imaging, XCL-1 SALL4 mock hiPSCs; assay type: cell-based; conditions: SALL4 mock control hiPSCs, 8 h of treatment
T1 construct: Unmodified Gibco hiPSCs were either differentiated in APEL2 + GSKi or maintained in mTeSR1, and SALL4 nuclear protein expression was monitored; endogenous in cells; host or cells: Gibco hiPSCs; XCL-1 SALL4 mock hiPSC clone
Source text: High content imaging analysis of SALL4 immunofluorescence with DAPI counterstaining in hiPSCs. […] Data represent the mean +/− SEM from 2 independent experiments.

Gibco hiPSCs [1] = test: 3D chondrogenic differentiation after LPM differentiation, DMMB assay for sGAG; assay type: cell-based, human; conditions: during 2 d LPM differentiation, then 18 d chondrogenic differentiation; for sGAG/DNA content compared to the DMSO control: thalidomide 20 µM, atRA 3 µM; for reduction of sGAG/DNA content upon chondrogenic differentiation in 3D: thalidomide at 20 µM, atRA at 3 µM
Experimental: (§1) For 3D differentiation studies, Gibco hiPSCs were encapsulated in fibrin at 2–4 × 10^6 cells/mL. hiPSCs were passaged with Versene (as described above) and were suspended as small clumps in a solution composed of a 1:4:5:10 dilution of 200 mM CaCl2 in DI water, 50 U/mL human thrombin (Sigma) in 0.1% cell culture BSA in DI water, DPBS, and hiPSC suspension in mTeSR1. The hiPSC suspension was mixed by pipetting, and 0.5 µL droplets of suspended hiPSCs were plated at the bottom of each well of a round-bottom sterile polypropylene plate. hiPSC suspensions were subsequently diluted 5-fold by pipetting up and down in each well with 2 µL of 10 mg/mL human fibrinogen (Sigma) in DPBS (sterile filtered prior to use). Fibrin clot formation proceeded for 10 minutes at room temperature prior to addition of mTeSR-1 and incubation under normal culture conditions overnight. […] For chondrogenic differentiation experiments, cells were cultured in APEL2 + GSKi for the described duration, followed by culture in ACF MesenCult chondrogenic differentiation medium (Stem Cell Technologies) for 17–20 days under normal culture conditions. Encapsulated hiPSCs were characterized by qRT-PCR as described above, except cells were lysed by bead-based homogenization (Bead Mill 4, Thermo Fisher) in buffer RLT that was supplemented with 1% β-mercaptoethanol. RNeasy procedure was carried out per manufacturer’s instructions, including the optional DNase step. Purified RNA samples were stored at −20 °C before analysis using Taqman primer/probes (Thermo Fisher) and fast advanced master mix (Thermo Fisher) on a QuantStudio 5 (Thermo). Samples were compared using normalization to the ACTB in each sample and the control for each experiment using the 2^−ΔΔCT method.
Alternatively, encapsulated hiPSCs were characterized for sulfated glycosaminoglycan (sGAG) content using the dimethylmethylene blue (DMMB) assay protocol[33],[34]. […] After addition of DMMB assay buffer, samples were immediately read at 525 nm, and sGAG composition was calculated in each sample by comparison to a chondroitin sulfate standard that was dissolved in digestion buffer. sGAG content (in µg/mL) was normalized to dsDNA content (in µg/mL) in each sample.
Figure 7 Characterization of hiPSC chondrogenic differentiation in 3D by DMMB assay for sulfated glycosaminoglycans. Chondrogenic differentiation of hiPSCs was assessed by culturing hiPSCs in fibrin gels followed by culture in APEL2/GSKi and subsequent culture in chondrogenic differentiation medium for a total of 21 days in culture after encapsulation. The influence of the duration of LPM differentiation or of chemical treatment during LPM differentiation (for 2 days) on chondrogenic differentiation was assessed by sulfated glycosaminoglycan assay on day 21. […]

hPSC = tested on: hPSC; design: method as in PMID 24154490; conditions: cited from earlier work
[2] = tested on: mouse embryonic stem cells; conditions: cited from earlier work
Gibco hiPSCs [3] = test: qRT-PCR of 3D fibrin cultures of hiPSCs during LPM differentiation; assay type: cell-based, human; conditions: thalidomide 20 µM, atRA 3 µM, 2 d in APEL2+GSKi, fibrin 3D
Experimental: as §1, with “Encapsulated hiPSCs were characterized by qRT-PCR as described above, except cells were lysed by bead-based homogenization (Bead Mill 4, Thermo Fisher) in buffer RLT that was supplemented with 1% β-mercaptoethanol. RNeasy procedure was carried out per manufacturer’s instructions, including the optional DNase step. Purified RNA samples were stored at −20 °C before analysis using Taqman primer/probes (Thermo Fisher) and fast advanced master mix (Thermo Fisher) on a QuantStudio 5 (Thermo). Samples were compared using normalization to the ACTB in each sample and the control for each experiment using the 2^−ΔΔCT method.” left out
(black bars). Data are presented as mean ± SEM of the log2 fold change calculated from each sample relative to the ACTB housekeeper control and the DMSO control (normalized via the 2-ΔΔCT method) from three independent experiments. […]

T1 sequence (Q9UJQ4 whole entry): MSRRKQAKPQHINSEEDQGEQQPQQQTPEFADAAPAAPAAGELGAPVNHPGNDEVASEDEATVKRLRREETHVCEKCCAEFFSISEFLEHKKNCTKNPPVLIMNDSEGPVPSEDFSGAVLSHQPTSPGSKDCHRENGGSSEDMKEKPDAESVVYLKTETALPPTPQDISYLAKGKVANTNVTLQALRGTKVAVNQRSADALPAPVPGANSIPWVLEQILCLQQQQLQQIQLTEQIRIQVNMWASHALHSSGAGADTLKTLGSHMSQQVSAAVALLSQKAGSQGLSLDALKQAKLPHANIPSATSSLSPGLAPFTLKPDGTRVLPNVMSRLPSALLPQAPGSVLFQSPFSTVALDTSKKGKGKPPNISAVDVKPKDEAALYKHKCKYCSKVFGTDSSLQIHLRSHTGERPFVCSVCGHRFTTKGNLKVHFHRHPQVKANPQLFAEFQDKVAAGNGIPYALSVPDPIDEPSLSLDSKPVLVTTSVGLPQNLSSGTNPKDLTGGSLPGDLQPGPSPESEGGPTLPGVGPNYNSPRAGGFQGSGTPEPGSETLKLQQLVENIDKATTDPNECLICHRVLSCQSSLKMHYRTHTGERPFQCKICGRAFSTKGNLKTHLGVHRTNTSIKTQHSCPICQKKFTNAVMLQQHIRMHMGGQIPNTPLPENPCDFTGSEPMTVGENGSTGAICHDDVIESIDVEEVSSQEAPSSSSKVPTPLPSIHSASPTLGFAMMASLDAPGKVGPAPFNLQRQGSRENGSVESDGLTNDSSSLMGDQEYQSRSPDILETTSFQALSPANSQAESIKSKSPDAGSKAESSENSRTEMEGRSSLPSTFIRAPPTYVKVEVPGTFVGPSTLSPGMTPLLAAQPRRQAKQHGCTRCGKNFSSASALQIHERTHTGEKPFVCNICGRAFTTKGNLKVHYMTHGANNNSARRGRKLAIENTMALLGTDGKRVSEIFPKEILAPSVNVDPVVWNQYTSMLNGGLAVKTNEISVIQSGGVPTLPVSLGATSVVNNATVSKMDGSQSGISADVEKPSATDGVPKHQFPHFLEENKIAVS
T1 sequence (Q96SW2 whole entry): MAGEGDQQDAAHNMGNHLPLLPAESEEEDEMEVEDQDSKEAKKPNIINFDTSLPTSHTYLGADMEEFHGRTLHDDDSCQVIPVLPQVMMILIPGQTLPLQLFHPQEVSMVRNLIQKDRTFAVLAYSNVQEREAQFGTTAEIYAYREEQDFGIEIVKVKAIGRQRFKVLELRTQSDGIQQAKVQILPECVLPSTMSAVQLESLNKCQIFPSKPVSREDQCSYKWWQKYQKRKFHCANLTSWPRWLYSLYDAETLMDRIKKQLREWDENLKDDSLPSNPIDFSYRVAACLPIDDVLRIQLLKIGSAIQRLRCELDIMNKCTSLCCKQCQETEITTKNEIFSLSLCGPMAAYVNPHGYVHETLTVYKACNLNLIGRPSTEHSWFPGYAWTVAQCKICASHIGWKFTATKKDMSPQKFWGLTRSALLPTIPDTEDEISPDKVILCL
T1 sequence (Q16531 whole entry partner): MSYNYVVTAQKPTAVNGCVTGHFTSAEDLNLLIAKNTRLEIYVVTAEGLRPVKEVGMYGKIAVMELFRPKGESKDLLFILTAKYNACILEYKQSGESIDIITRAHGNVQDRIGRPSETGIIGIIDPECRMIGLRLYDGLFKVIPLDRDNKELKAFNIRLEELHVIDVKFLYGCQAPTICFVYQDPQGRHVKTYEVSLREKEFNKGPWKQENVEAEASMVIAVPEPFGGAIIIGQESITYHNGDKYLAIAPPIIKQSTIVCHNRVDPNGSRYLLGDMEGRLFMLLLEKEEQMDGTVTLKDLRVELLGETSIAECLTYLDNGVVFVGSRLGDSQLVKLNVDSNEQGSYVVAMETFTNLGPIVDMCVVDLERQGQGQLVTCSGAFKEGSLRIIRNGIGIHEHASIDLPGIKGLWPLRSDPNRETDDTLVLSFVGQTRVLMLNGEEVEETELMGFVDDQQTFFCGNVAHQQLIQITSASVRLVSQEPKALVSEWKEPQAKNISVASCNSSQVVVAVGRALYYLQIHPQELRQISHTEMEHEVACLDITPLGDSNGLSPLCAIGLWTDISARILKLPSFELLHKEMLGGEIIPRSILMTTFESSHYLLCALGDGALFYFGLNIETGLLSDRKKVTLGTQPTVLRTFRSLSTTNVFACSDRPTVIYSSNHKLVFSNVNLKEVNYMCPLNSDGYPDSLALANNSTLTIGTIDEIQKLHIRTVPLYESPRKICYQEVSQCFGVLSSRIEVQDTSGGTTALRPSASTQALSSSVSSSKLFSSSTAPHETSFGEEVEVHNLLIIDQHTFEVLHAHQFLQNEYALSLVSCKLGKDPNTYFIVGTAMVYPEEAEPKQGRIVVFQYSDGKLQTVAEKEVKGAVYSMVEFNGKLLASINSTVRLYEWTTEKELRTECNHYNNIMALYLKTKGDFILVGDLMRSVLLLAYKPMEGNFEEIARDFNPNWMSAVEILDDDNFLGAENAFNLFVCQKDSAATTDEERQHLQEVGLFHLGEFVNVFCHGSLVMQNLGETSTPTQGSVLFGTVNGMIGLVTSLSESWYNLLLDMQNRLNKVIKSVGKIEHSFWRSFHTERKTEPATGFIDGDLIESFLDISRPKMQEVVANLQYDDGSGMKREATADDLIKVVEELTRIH

| Structure (SMILES) | effect on SALL4 MFI (SALL4) | sGAG/DNA content compared to the DMSO control (Gibco hiPSCs [1]) | reduction of sGAG/DNA content upon chondrogenic differentiation in 3D (Gibco hiPSCs [1]) | non-cytotoxic concentrations at which the definitive endoderm assay was sensitive (hPSC) | concentration for nonspecific toxicity in the mEST [2] | effect on marker gene expression in 3D LPM differentiation (Gibco hiPSCs [3]) |
| --- | --- | --- | --- | --- | --- | --- |
| O=C1CCC(N2C(=O)c3ccccc3C2=O)C(=O)N1 (stereo not drawn) [Thalidomide, thalidomide] | potently reduced SALL4 MFI | decreased sGAG/DNA content | 30% | below 1 µM | above 400 µM | reduced FOXF1 and KDR expression |
| CC1=C(/C=C/C(C)=C/C=C/C(C)=C/C(=O)O)C(C)(C)CCC1 [atRA, all-trans retinoic acid] | – | decreased sGAG/DNA content | complete abolishment | – | – | reduced FOXF1 and KDR expression; also recorded: reduced the expression of TBXT and GATA4 |
